Assay: molar heat capacity at constant pressure; xn = mol fraction of the nth substance listed
Conditions: 101.3 kPa, Liquid, Small sample (50 mg) DSC

CCC(C)(C)O [2-methylbutan-2-ol] + CCCCCCC
Conditions | molar heat capacity at constant pressure [J/K/mol]
336.14 K, x1 = 0.1 | 252.29
336.14 K, x1 = 0.1547 | 260.02
336.14 K, x1 = 0.1999 | 265.26
336.14 K, x1 = 0.2993 | 273.56
336.14 K, x1 = 0.4051 | 279.11
336.14 K, x1 = 0.4986 | 282.65
336.14 K, x1 = 0.5981 | 285.05
336.14 K, x1 = 0.7015 | 286.5
336.14 K, x1 = 0.8023 | 286.51
336.14 K, x1 = 0.9139 | 285.7
336.14 K, x1 = 0.9609 | 284.91
337.15 K, x1 = 0.0061 | 240.08
337.15 K, x1 = 0.0249 | 241
337.15 K, x1 = 0.0494 | 244
337.15 K, x1 = 0.1 | 252.41
337.15 K, x1 = 0.1547 | 260.16
337.15 K, x1 = 0.1999 | 265.46
337.15 K, x1 = 0.2993 | 273.86
337.15 K, x1 = 0.4051 | 279.59
337.15 K, x1 = 0.4986 | 283.2
337.15 K, x1 = 0.5981 | 285.63
337.15 K, x1 = 0.7015 | 287.22
337.15 K, x1 = 0.8023 | 287.25
337.15 K, x1 = 0.9139 | 286.44
337.15 K, x1 = 0.9609 | 285.69
338.14 K, x1 = 0.0061 | 240.6
338.14 K, x1 = 0.0249 | 241.26
338.14 K, x1 = 0.0494 | 244.22
338.14 K, x1 = 0.1 | 252.49
338.14 K, x1 = 0.2993 | 274.14
338.14 K, x1 = 0.4051 | 280.08
338.14 K, x1 = 0.4986 | 283.63
338.14 K, x1 = 0.5981 | 286.18
338.14 K, x1 = 0.7015 | 287.86
338.14 K, x1 = 0.8023 | 287.94
338.14 K, x1 = 0.9139 | 287.19
338.16 K, x1 = 0.1547 | 260.35
338.16 K, x1 = 0.1999 | 265.67
338.16 K, x1 = 0.9609 | 286.41
339.14 K, x1 = 0.0061 | 241
339.14 K, x1 = 0.0249 | 241.65
339.14 K, x1 = 0.0494 | 244.45
339.14 K, x1 = 0.1 | 252.62
339.14 K, x1 = 0.1547 | 260.43
339.14 K, x1 = 0.1999 | 265.8
339.14 K, x1 = 0.2993 | 274.34
339.14 K, x1 = 0.4051 | 280.35
339.14 K, x1 = 0.4986 | 284.12
339.14 K, x1 = 0.5981 | 286.77
339.14 K, x1 = 0.7015 | 288.43
339.14 K, x1 = 0.8023 | 288.55
339.14 K, x1 = 0.9139 | 287.89
339.14 K, x1 = 0.9609 | 287.02
340.15 K, x1 = 0.0061 | 241.53
340.15 K, x1 = 0.0249 | 242.15
340.15 K, x1 = 0.0494 | 244.83
340.15 K, x1 = 0.1 | 252.82
340.15 K, x1 = 0.1547 | 260.57
340.15 K, x1 = 0.1999 | 266.02
340.15 K, x1 = 0.2993 | 274.71
340.15 K, x1 = 0.4051 | 280.76
340.15 K, x1 = 0.4986 | 284.68
340.15 K, x1 = 0.5981 | 287.28
340.15 K, x1 = 0.7015 | 289.07
340.15 K, x1 = 0.8023 | 289.24
340.15 K, x1 = 0.9139 | 288.58
340.15 K, x1 = 0.9609 | 287.73
341.14 K, x1 = 0.0249 | 242.51
341.14 K, x1 = 0.9139 | 289.17
341.16 K, x1 = 0.0061 | 241.89
341.16 K, x1 = 0.0494 | 245.03
341.16 K, x1 = 0.1 | 252.79
341.16 K, x1 = 0.1547 | 260.64
341.16 K, x1 = 0.1999 | 266.06
341.16 K, x1 = 0.2993 | 274.84
341.16 K, x1 = 0.4051 | 281
341.16 K, x1 = 0.4986 | 284.87
341.16 K, x1 = 0.5981 | 287.66
341.16 K, x1 = 0.7015 | 289.5
341.16 K, x1 = 0.8023 | 289.74
341.16 K, x1 = 0.9609 | 288.3
342.14 K, x1 = 0.0061 | 242.38
342.14 K, x1 = 0.0249 | 242.91
342.14 K, x1 = 0.0494 | 245.35
342.14 K, x1 = 0.1 | 253
342.14 K, x1 = 0.1547 | 260.67
342.14 K, x1 = 0.1999 | 266.17
342.14 K, x1 = 0.2993 | 275.1
342.14 K, x1 = 0.4051 | 281.32
342.14 K, x1 = 0.4986 | 285.37
342.14 K, x1 = 0.5981 | 288.22
342.14 K, x1 = 0.7015 | 290.08
342.14 K, x1 = 0.8023 | 290.39
342.14 K, x1 = 0.9139 | 289.86
342.14 K, x1 = 0.9609 | 288.96
343.15 K, x1 = 0.0061 | 242.71
343.15 K, x1 = 0.0249 | 243.18
343.15 K, x1 = 0.0494 | 245.62
343.15 K, x1 = 0.1 | 253.03
343.15 K, x1 = 0.1547 | 260.73
343.15 K, x1 = 0.1999 | 266.34
343.15 K, x1 = 0.2993 | 275.23
343.15 K, x1 = 0.4051 | 281.6
343.15 K, x1 = 0.4986 | 285.7
343.15 K, x1 = 0.5981 | 288.61
343.15 K, x1 = 0.7015 | 290.51
343.15 K, x1 = 0.8023 | 290.89
343.15 K, x1 = 0.9139 | 290.38
343.15 K, x1 = 0.9609 | 289.53
344.16 K, x1 = 0.0061 | 243.26
344.16 K, x1 = 0.0249 | 243.63
344.16 K, x1 = 0.0494 | 245.97
344.16 K, x1 = 0.1 | 253.15
344.16 K, x1 = 0.1547 | 260.83
344.16 K, x1 = 0.1999 | 266.48
344.16 K, x1 = 0.2993 | 275.42
344.16 K, x1 = 0.4051 | 281.89
344.16 K, x1 = 0.4986 | 286.07
344.16 K, x1 = 0.5981 | 289.06
344.16 K, x1 = 0.7015 | 291.07
344.16 K, x1 = 0.8023 | 291.49
344.16 K, x1 = 0.9139 | 291.02
344.16 K, x1 = 0.9609 | 290.18
345.14 K, x1 = 0.0061 | 243.73

— the NIST ThermoML archive (doi:10.1016/j.jct.2008.10.010)
